The values that follow are results of earlier work, collected in patent US20040092577A1, “Microparticle pharmaceutical compositions for intratumoral delivery” (priority 2002, published 2004).

Data set [1] relates to MDA-468 breast cancer cells. Particulars: Lankmela et al.
For data set [2] the following is noted: gels, 0.6% loading; Zentner 2001.

Consider `COc1cccc2c1C(=O)c1c(O)c3c(c(O)c1C2=O)C[C@@](O)(C(=O)CO)C[C@@H]3O[C@H]1C[C@H](N)[C@H](O)[C@H](C)O1` [doxorubicin], for which the “rate of uptake α” value in data set [1] was 0.016 s⁻¹. For the molecule `CC(=O)O[C@H]1C(=O)[C@@]2(C)[C@H]([C@H](OC(=O)c3ccccc3)[C@]3(O)C[C@H](OC(=O)[C@H](O)[C@@H](NC(=O)c4ccccc4)c4ccccc4)C(C)=C1C3(C)C)[C@]1(OC(C)=O)CO[C@@H]1C[C@@H]2O` [Paclitaxel], in data set [2], the duration of delivery was 1 to 6 weeks.
